Here are results for 18 molecules from PubChem BioAssay AID256 (DTP/NCI, 2004).

“And” between values parts separate entries of the source, which are not always exact repeats. Identical values can stand only once. Inconclusive results and toxic doses are left out.

In the experiment the test system is CD2F1 mice, L1210 leukemia ip, survival T/C. In words: NCI In Vivo Anticancer Drug Screen. Data for tumor model L1210 Leukemia (intraperitoneal) in CD2F1 (CDF1) mice. As to conditions: higher = longer survival. Summed up: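 Read-out first: treated-group measurement over vehicle-control measurement, expressed as a ratio. Animals bore a transplanted tumor line and were dosed with compound or vehicle.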

The mark [1] stands for this setting: endpoint: mean survival time, dose: 100.0 mg/kg/injection, schedule: Q04DX002 (ip), vehicle: saline with Tween-80.
Setting [2] is: endpoint: mean survival time, dose: 200.0 mg/kg/injection, schedule: Q04DX002 (ip), vehicle: saline with Tween-80.
The mark [3] stands for this setting: endpoint: mean survival time, dose: 100.0 mg/kg/injection, schedule: Q01DX009 (ip), vehicle: saline with Tween-80.
[4] abbreviates: endpoint: mean survival time, dose: 200.0 mg/kg/injection, schedule: Q01DX009 (ip), vehicle: saline with Tween-80.
Setting [5] is: endpoint: mean survival time, dose: 100.0 mg/kg/injection, schedule: Q04DX003 (ip), vehicle: saline.
Where [6] appears, read: endpoint: mean survival time, dose: 200.0 mg/kg/injection, schedule: Q04DX003 (ip), vehicle: saline.
Where [7] appears, read: endpoint: mean survival time, dose: 100.0 mg/kg/injection, schedule: Q04DX003 (ip), vehicle: saline with Tween-80.
Setting [8] is: endpoint: mean survival time, dose: 200.0 mg/kg/injection, schedule: Q04DX003 (ip), vehicle: saline with Tween-80.
Where [9] appears, read: endpoint: mean survival time, dose: 400.0 mg/kg/injection, schedule: Q04DX003 (ip), vehicle: saline with Tween-80.
Where [10] appears, read: endpoint: mean survival time, dose: 50.0 mg/kg/injection, schedule: Q01DX009 (ip), vehicle: saline with Tween-80.

Consider `[Cl][Pt+2][Cl].[NH-]C1C(O)OC(CO)C(O)C1O.[NH-]C1C(O)OC(CO)C(O)C1O` (stereo not given), for which the T/C (endpoint: median survival time, dose: 2.5 mg/kg/injection, schedule: Q04DX003 (ip), vehicle: saline) is 105 % of control; the T/C (endpoint: median survival time, dose: 5.0 mg/kg/injection, schedule: Q04DX003 (ip), vehicle: saline) was 110 % of control; the T/C (endpoint: median survival time, dose: 10.0 mg/kg/injection, schedule: Q04DX003 (ip), vehicle: saline) was 93 % of control; the T/C (endpoint: median survival time, dose: 20.0 mg/kg/injection, schedule: Q04DX003 (ip), vehicle: saline) is 100 % of control; the T/C (endpoint: median survival time, dose: 25.0 mg/kg/injection, schedule: Q04DX003 (ip), vehicle: saline) is 103 % of control; the T/C (endpoint: median survival time, dose: 50.0 mg/kg/injection, schedule: Q04DX003 (ip), vehicle: saline) is 105 % of control. Further, the T/C runs as follows: (endpoint: median survival time, dose: 100.0 mg/kg/injection, schedule: Q04DX003 (ip), vehicle: saline) 103 % of control; (endpoint: median survival time, dose: 200.0 mg/kg/injection, schedule: Q04DX003 (ip), vehicle: saline) 101 % of control.
Consider `O=[N+]([O-])c1ccc(/C(CBr)=N/N2CCCCC2)cc1`, for which the T/C was 94 % of control (endpoint: mean survival time, dose: 100.0 mg/kg/injection, schedule: Q01DX001 (ip), vehicle: saline); 93 % of control (endpoint: mean survival time, dose: 200.0 mg/kg/injection, schedule: Q01DX001 (ip), vehicle: saline); 92 % of control (endpoint: mean survival time, dose: 400.0 mg/kg/injection, schedule: Q01DX001 (ip), vehicle: saline).
Turning to `CCOC(=O)C(C#N)c1ccccc1` (stereo not given), the T/C runs as follows: under setting [1], 94 % of control; under setting [2], 94 % of control.
On to `Cc1cn2c(nc1=O)OC1C(O)C(CCl)OC12` (stereo not given), for which the T/C was 103 % of control (endpoint: median survival time, dose: 12.5 mg/kg/injection, schedule: Q01DX005 (ip), vehicle: saline with Tween-80); 96 % of control (endpoint: median survival time, dose: 25.0 mg/kg/injection, schedule: Q01DX005 (ip), vehicle: saline with Tween-80); 103 % of control (endpoint: median survival time, dose: 50.0 mg/kg/injection, schedule: Q01DX005 (ip), vehicle: saline with Tween-80); 95 % of control (endpoint: median survival time, dose: 100.0 mg/kg/injection, schedule: Q01DX005 (ip), vehicle: saline with Tween-80); 94 % of control (endpoint: median survival time, dose: 200.0 mg/kg/injection, schedule: Q01DX005 (ip), vehicle: saline with Tween-80).
Consider `Clc1ccc(SC=C(Sc2ccc(Cl)cc2)Sc2ccc(Cl)cc2)cc1`, for which the T/C (endpoint: mean survival time, dose: 100.0 mg/kg/injection, schedule: Q04DX002 (ip), vehicle: other) was 94 % of control; the T/C (endpoint: mean survival time, dose: 200.0 mg/kg/injection, schedule: Q04DX002 (ip), vehicle: other) was 94 % of control; the T/C (endpoint: mean survival time, dose: 400.0 mg/kg/injection, schedule: Q04DX002 (ip), vehicle: other) was 87 % of control.
As for `O=C1CC2C=CC1CC2` (stereo not given), the T/C is 105 % of control (endpoint: mean survival time, dose: 100.0 mg/kg/injection, schedule: Q04DX003 (ip), vehicle: other); 101 % of control (endpoint: mean survival time, dose: 200.0 mg/kg/injection, schedule: Q04DX003 (ip), vehicle: other); 100 % of control (endpoint: mean survival time, dose: 400.0 mg/kg/injection, schedule: Q04DX003 (ip), vehicle: other).
As to `O=C(O)/C(=C\c1ccccc1)c1ccccc1`, the T/C by setting is: under setting [3], 90 % of control; under setting [4], 101 % of control; (endpoint: mean survival time, dose: 400.0 mg/kg/injection, schedule: Q01DX009 (ip), vehicle: saline with Tween-80) 95 % of control.
Take `CN(C)P1(N)=NP(N)(N(C)C)=NP(N)(N(C)C)=N1` (stereo not given): the T/C by setting is: under setting [5], 100 % of control; under setting [6], 94 % of control; (endpoint: mean survival time, dose: 400.0 mg/kg/injection, schedule: Q04DX003 (ip), vehicle: saline) 96 % of control.
As to `CC(=O)Oc1ccc([N+](=O)[O-])cc1[N+](=O)[O-]`, where the note is “endpoint: mean survival time, dose: 25.0 mg/kg/injection, schedule: Q04DX002 (ip), vehicle: Klucel (hydroxypropylcellulose) (HPC)”, the T/C is 93 % of control.
For `C=CCC1(C(=O)OCC)CCCCC1=O` (stereo not given), the T/C runs as follows: under setting [7], 103 % of control; under setting [8], 106 % of control; under setting [9], 110 % of control.
On to `COc1ccc(-c2nc3ccccc3nc2-c2ccc(OC)cc2)cc1`, for which the T/C under setting [7] was 94 % of control and the T/C under setting [8] is 94 % of control.
`C[C@@](O)(/C=C/[C@H]1CC=CC(=O)O1)[C@@H](C[C@@H](O)\C=C/C=C\C=C\CO)OP(=O)(O)O`: the T/C is 109 % of control (endpoint: median survival time, dose: 0.4 mg/kg/injection, schedule: Q01DX005 (iv), vehicle: other); 109 % of control (endpoint: median survival time, dose: 0.78 mg/kg/injection, schedule: Q01DX005 (iv), vehicle: other); 112 % of control (endpoint: median survival time, dose: 1.56 mg/kg/injection, schedule: Q01DX005 (iv), vehicle: other); 121 % of control (endpoint: median survival time, dose: 1.56 mg/kg/injection, schedule: Q01DX005 (iv), vehicle: saline); 243 % of control (endpoint: median survival time, dose: 1.56 mg/kg/injection, schedule: Q01DX009 (ip), vehicle: other); 216 % of control (endpoint: median survival time, dose: 1.56 mg/kg/injection, schedule: Q01DX009 (ip), vehicle: saline). For the same molecule, the T/C (endpoint: median survival time, dose: 3.12 mg/kg/injection, schedule: Q01DX009 (ip), vehicle: other) is 170 % of control and 191 % of control; the T/C (endpoint: median survival time, dose: 3.12 mg/kg/injection, schedule: Q01DX009 (ip), vehicle: saline) is 204 % of control; the T/C (endpoint: median survival time, dose: 3.13 mg/kg/injection, schedule: Q01DX005 (iv), vehicle: other) is 123 % of control; the T/C (endpoint: median survival time, dose: 3.13 mg/kg/injection, schedule: Q01DX009 (ip), vehicle: other) is 235 % of control; the T/C (endpoint: median survival time, dose: 6.25 mg/kg/injection, schedule: Q01DX005 (iv), vehicle: other) is 162 % of control; the T/C (endpoint: median survival time, dose: 6.25 mg/kg/injection, schedule: Q01DX009 (ip), vehicle: other) was 194 % of control and 207 % of control and 512 % of control. Also, the T/C reads like this: (endpoint: median survival time, dose: 6.25 mg/kg/injection, schedule: Q01DX009 (ip), vehicle: saline) 216 % of control; (endpoint: median survival time, dose: 12.5 mg/kg/injection, schedule: Q01DX005 (iv), vehicle: other) 197 % of control; (endpoint: median survival time, dose: 12.5 mg/kg/injection, schedule: Q01DX005 (iv), vehicle: saline) 178 % of control; (endpoint: median survival time, dose: 12.5 mg/kg/injection, schedule: Q01DX009 (ip), vehicle: other) 117 % of control and 337 % of control; (endpoint: median survival time, dose: 12.5 mg/kg/injection, schedule: Q01DX009 (ip), vehicle: saline) 722 % of control; (endpoint: median survival time, dose: 25.0 mg/kg/injection, schedule: Q01DX005 (iv), vehicle: other) 259 % of control. The T/C is, setting by setting: (endpoint: median survival time, dose: 25.0 mg/kg/injection, schedule: Q01DX005 (iv), vehicle: saline) 201 % of control; (endpoint: median survival time, dose: 25.0 mg/kg/injection, schedule: Q01DX009 (ip), vehicle: other) 273 % of control; (endpoint: median survival time, dose: 50.0 mg/kg/injection, schedule: Q01DX005 (iv), vehicle: saline) 240 % of control.
For the molecule `COC(=O)C(C)C(C)(O)C(C)(C)C` (stereo not given), the T/C (endpoint: mean survival time, dose: 25.0 mg/kg/injection, schedule: Q01DX009 (ip), vehicle: saline with Tween-80) is 100 % of control; the T/C (endpoint: mean survival time, dose: 25.0 mg/kg/injection, schedule: Q04DX003 (ip), vehicle: saline) is 103 % of control; the T/C under setting [10] is 101 % of control; the T/C (endpoint: mean survival time, dose: 50.0 mg/kg/injection, schedule: Q04DX003 (ip), vehicle: saline) was 103 % of control; the T/C under setting [3] is 102 % of control; the T/C under setting [5] is 98 % of control.
Regarding `N#CCC(=O)NN`, the T/C is 103 % of control under setting [5] and 108 % of control under setting [6].
Consider `Clc1ccc2c(NCCN3CCCCCC3)nc(C(Cl)(Cl)Cl)nc2c1`, for which the T/C under setting [10] is 94 % of control; the T/C (endpoint: mean survival time, dose: 50.0 mg/kg/injection, schedule: Q04DX003 (ip), vehicle: saline with Tween-80) was 103 % of control; the T/C under setting [3] is 98 % of control; the T/C under setting [7] is 94 % of control; the T/C under setting [4] is 98 % of control; the T/C under setting [8] is 92 % of control.
Regarding `O=C(N/N=C/c1ccc(Cl)cc1)c1ccc(Cl)cc1`, the T/C is, setting by setting: under setting [7], 101 % of control; under setting [8], 93 % of control; under setting [9], 108 % of control.
On to `CCCCCCCCCCCCCCCCSc1cccc(C)c1`, for which the T/C is 95 % of control (endpoint: mean survival time, dose: 100.0 mg/kg/injection, schedule: Q04DX003 (ip), vehicle: Klucel (hydroxypropylcellulose) (HPC)); 92 % of control (endpoint: mean survival time, dose: 200.0 mg/kg/injection, schedule: Q04DX003 (ip), vehicle: Klucel (hydroxypropylcellulose) (HPC)); 98 % of control (endpoint: mean survival time, dose: 400.0 mg/kg/injection, schedule: Q04DX003 (ip), vehicle: Klucel (hydroxypropylcellulose) (HPC)).
Consider `Cc1ccccc1NC(=O)Oc1ccc(-c2ccccc2)cc1Cl`, for which the T/C runs as follows: under setting [1], 86 % of control; under setting [2], 89 % of control; (endpoint: mean survival time, dose: 400.0 mg/kg/injection, schedule: Q04DX002 (ip), vehicle: saline with Tween-80) 93 % of control.
